The test system of data set [1] is human EDTA-anti-coagulated blood diluted 1∶10. The data set is described as follows: TNF release assay in stimulated diluted whole blood (ELISA). It is filed as cell-based. In general terms: ELISA stands for enzyme-linked immunosorbent assay.
For data set [2], the system named is adult chimpanzees.

Bridge positions count the residues as written; N and C are the ends. Peptide text beside a SMILES is read from it.

With `CC[C@H](C)[C@@H]1NC(=O)[C@@H]2CSSC[C@H](NC(=O)[C@H](CCCNC(=N)N)NC(=O)[C@@H]3CSSC[C@H](NC1=O)C(=O)N[C@@H]([C@@H](C)O)C(=O)N[C@@H](CCCNC(=N)N)C(=O)NCC(=O)N[C@@H](Cc1ccccc1)C(=O)N3)C(=O)N[C@@H](CC(C)C)C(=O)N[C@H]1CSSC[C@H](NC(=O)[C@H](C(C)C)NC(=O)CNC(=O)[C@H](CCCNC(=N)N)NC(=O)[C@H](CCCNC(=N)N)NC1=O)C(=O)N[C@@H](CCCNC(=N)N)C(=O)N2` [RTD-1] (cyclo(GFCRCLCRRGVCRCICTR); disulfide 3-16, 5-14, 7-12), in data set [1], the TNF-release inhibition is 70–80% and the “reduction of TNF levels” value was 46–93%. In addition, the “clinical and injection site effects” value in data set [2] (escalating i.v. doses (0.2 to 3.0 mg/kg over 14 days), two animals) is given as “No clinical or injection site effects were observed”. Besides, in data set [2] (escalating i.v. doses, all time points incl. days 21, 28, 60), the “comprehensive metabolic panels and complete blood counts with differential” value is listed as “no abnormalities”. Moreover, in data set [2] (serum samples after escalating i.v. doses, two animals), the “anti-RTD-1 antibody (dot blot immunoassay)” value is “No anti-RTD-1 antibody was detected”.

For the origin of these results see PMC3516535, “Rhesus Macaque Theta Defensins Suppress Inflammatory Cytokines and Enhance Survival in Mouse Models of Bacteremic Sepsis” (PLoS ONE, 2012).
